Measurements published in patent US20090305993A1, “METHODS AND COMPOSITION FOR THE TREATMENT OF GASTROINTESTINAL DISORDERS” (IRONWOOD PHARMACEUTICALS, INC., priority 2006, published 2009).
Where a SMILES comes first, the peptide text is derived from it. Bridges are numbered along the chain shown (N, C = ends).

What was measured:
mice = assay: murine gastrointestinal transit (GIT) assay, acute dosing; type: in vivo, mouse
Description: In order to determine whether the peptides increase the rate of gastrointestinal transit, the peptides and controls were tested using a murine gastrointestinal transit (GIT) assay (Moon et al. Infection and Immunity 25:127, 1979). In this assay, charcoal, which can be readily visualized in the gastrointestinal tract is administered to mice after the administration of a test compound. The distance traveled by the charcoal is measured and expressed as a percentage of the total length of the […].
Mice were fasted with free access to water for 12 to 16 hours before the treatment with peptide or control buffer. The peptides were orally administered at 1 μg/kg-1 mg/kg of peptide in buffer (20 mM Tris pH 7.5) 7 minutes before being given an oral dose of 5% Activated Carbon (Aldrich 242276-250G). Control mice were administered buffer only before being given a dose of Activated Carbon. After 15 minutes, the mice were sacrificed and their intestines from the stomach to the cecum were dissected. The total length of the intestine as well as the distance traveled from the stomach to the charcoal front was measured for each animal and the results are expressed as the percent of the total length of the intestine traveled by the charcoal front. All results are reported as the average of 10 mice±standard deviation. A comparison of the distance traveled by the charcoal between the mice treated with peptide versus the mice treated with vehicle alone was performed using a Student's t test and a statistically significant difference was considered for P<0.05. P-values are calculated using a two-sided T-Test assuming unequal variances.

[1] = stability in simulated gastric fluid (SGF) pH 1; type: in vitro ADME; settings: pH 1, 37° C., up to 3 h
Description: All samples were analyzed by LC/MS
The reference control sample was diluted 10-fold (1000 μL volume) in distilled water for a final concentration of 10 μM and chilled on ice. At each time point, samples were diluted 10-fold (1000 μL volume) in distilled water for an expected concentration of 10 μM, and chilled on ice, until analysis.

Female CD rats [2] = assay: ligated loop model in rats (cGMP, secretion); type: in vivo; settings: center loop of the rat small intestine, 5 μg, FIG. 17b
From the text: In the case of the rat, however four loops of intestine were surgically ligated. The first three loops were distributed equally in the small intestine and the fourth loop was located in colon. […] SEQ ID NO:3 increases cGMP levels and secretion in the center loop of the rat small intestine as shown in FIG. 17b (n=9-10 animal per group for secretion assays; n=7-8 animals for cGMP assays).

mouse = assay: phenylbenzoquinone (PBQ)-induced writhing model; settings: oral; SEQ ID NO:5 1 mg/kg, SEQ ID NO:3 2.5 mg/kg; versus vehicle control, FIGS. 8a, 8b
Female CD rats [3] = assay: rat model of postoperative ileus; type: in vivo; settings: oral 10 μg/kg, after abdominal surgery, FIG. 16
Description: Female CD rats were used to test the effect of SEQ ID NO:3 on delayed transit induced by abdominal surgery and manual manipulation of the small intestine. Groups of at least nine rats underwent abdominal surgery under isoflurane anesthesia. Surgery consisted of laparotomy and 5 minutes of gentle manual intestinal massage. Following recovery from anesthesia, rats were dosed orally with either 10 μg/kg SEQ ID NO:3 or vehicle (20 mM Tris) in a volume of 300 μl. 1 hour after dosing, intestinal transit rate was measured. Animals were again dosed with 300 μl of the test article followed immediately by 500 μl of a charcoal meal (10% charcoal, 10% gum arabic in water). To calculate the distance of the small intestine traveled by the charcoal front, after 20 minutes, the total length of the intestine as well as the distance traveled from the stomach to the charcoal front were measured for each animal. Animals dosed with 10 μg/kg SEQ ID NO:3 experienced an increase in transit following abdominal surgery compared to animals dosed with vehicle alone (FIG. 16). Charcoal transit in SEQ ID NO:3 dosed animals was measured at 37.3+3.0% (mean+SEM) of the small intestine compared with vehicle at 24.7+1.4% (mean+SEM) of the small intestine.

adult male Wistar rats = assay: water avoidance stress-induced visceral hyperalgesia model; type: in vivo, rat; settings: oral 3 μg/kg, FIG. 7f
Description: The effect of SEQ ID NO:3 on basal visceral nociception in a model of water avoidance stress-induced visceral hyperalgesia in adult male Wistar rats was tested. The stress involved confining rats to a platform surrounded by water for a period of 1 hour and then measuring their visceromotor response to colonic distension using electromyography (EMG).
Electrode leads were then tunneled subcutaneously and externalized laterally for future access. Following surgery, rats were housed in pairs and allowed to recover for at least 7 days. On the day of the experiment, animals were lightly anesthetized with halothane, and a lubricated latex balloon (6 cm) was inserted intra-anally into the descending colon. Animals were allowed to recover for 30 minutes, and colorectal distension (CRD) was initiated. The CRD procedure consisted of graded intensities of phasic CRD (10, 20, 40, 60 mmHg; 20 s duration; 4 min inter-stimulus interval). Visceromotor response (VMR) to CRD was quantified by measuring EMG activity. […] Animals were allowed 1 hour recovery and then SEQ ID NO:3 or vehicle was orally administered. At 1 hour following administration of SEQ ID NO:3 or vehicle CRD was repeated. […]
To determine the effect of SEQ ID NO:3 in a model of water avoidance stress-induced visceral hyperalgesia, a baseline CRD was recorded and then the animals were subjected to 1 hour of water avoidance stress. […]

In the case of C[C@@H]1NC(=O)[C@@H]2CCCN2C(=O)[C@H](CC(N)=O)NC(=O)[C@@H]2CSSC[C@H](N)C(=O)N[C@H]3CSSC[C@H](NC1=O)C(=O)N[C@@H]([C@@H](C)O)C(=O)NCC(=O)N[C@H](C(=O)N[C@@H](Cc1ccc(O)cc1)C(=O)O)CSSC[C@H](NC(=O)[C@H](Cc1ccc(O)cc1)NC(=O)[C@H](CCC(=O)O)NC3=O)C(=O)N2 [SEQ ID NO:3] (H-CCEYCCNPACTGCY-OH; disulfide 1-6, 2-10, 5-13; N-terminus and C-terminus assumed), the “intestinal transit rates versus Tris buffer and Zelnorm” value (mice; chemically synthesized peptides, FIG. 4b) is reported as “increase intestinal transit rates more than either Tris buffer alone or an equivalent dose of Zelnorm®”, the gastrointestinal transit rate (mice; oral, SEQ ID NO:4 0.1 mg/kg, Zelnorm 0.1 mg/kg, FIG. 3a, 3b) is reported as “increase gastrointestinal transit rate” and the “Cleavage of SEQ ID NO: 3 by proteolytic substance” value [1] is reported as “not detectable”. The “cGMP levels in ligated loop” value (Female CD rats [2]) was “increases”, the “secretion in ligated loop” value (Female CD rats [2]) was “increases” and the writhings (mouse) was “Significant reductions in writhings”. For the same compound, the “Charcoal transit, of the small intestine (mean+SEM)” value (Female CD rats [3]) was 37.3+3.0% and the “visceromotor response to CRD 24 hours after water avoidance stress” value (adult male Wistar rats) was “exhibited anti-hyperalgesic properties”.
